{"source": "patent US7053043B1", "about": "“Pharmaceutical compositions comprising synthetic peptide copolymers and methods for preventing and treating GVHD and HVGD” (Yeda Research and Development Co.Ltd., priority 1999, dated 2006)", "key": {"[1]": {"test_system": "B10.D2 responder T cells with APC presenting BALB/c mH antigens", "assay": "Proliferative responses to minor H antigens in vitro, Cop 1 present in the assay", "type": "cell-based, mice", "settings": "for cpm (Cop 1 Assay Concentration): Resp. + APC", "description": "B10.D2 mice were injected ip. with irradiated (20 Gy) BALB/c spleen cells 72 hours prior to the assay. B10.D2 spleen cells were harvested, depleted of red blood cells (RBC) and used as irradiated (10 Gy) antigen-presenting cells (APC) presenting BALB/c mH antigens. For the primary assay, APC were plated at 2.5×10^5 cells per well in 96-well round-bottom plates and incubated with 2.5×10^5 nylon-wool-enriched responder T cells (>88% CD3^+ by FACS […]). After 96 hours of incubation, cells were pulsed with 1 μCi [^3H]-thymidine for an additional 16 hours before harvesting. In the secondary assay, irradiated APC were plated at 2.5×10^5 cells/well in 96-well round-bottom plates, preincubated for 24 hours at 37° C. with increasing concentrations of GLAT (2.5–80 μg/well) or with medium alone, and thereafter washed three times before the addition of 2.5×10^5 nylon-wool-enriched responder T cells from naive B10.D2 mice. Culture medium was RPMI 1640, supplemented with 10% pre-screened fetal calf serum, 2 mM glutamine, 50 μM 2-mercaptoethanol, 100 U/ml penicillin, and 100 μg/ml streptomycin.\nB10.D2 mice were injected ip with irradiated (20 Gy) BALB/c spleen cells 72 hours prior to the assay. B10.D2 spleen cells were harvested, depleted of RBC and used as irradiated (10 Gy) APC presenting BALB/c mH antigens. APC were plated at 2.5×10^5 cells/well in 96-well round-bottom plates and incubated with 2.5×10^5 nylon-wool-enriched responder T cells (>88% CD3^+ by FACS analysis) from naive B10.D2 mice in the presence or absence of increasing concentrations of Copolymer 1 (Batch I) (2.5–80 μg/well). After 96 hours of incubation, cells were pulsed with 1 μCi [^3H]-thymidine for an additional 16 hours before harvesting. […] Maximum inhibition was 100% at a concentration of 80 μg/well."}, "[2]": {"test_system": "T cell proliferation in MHC-disparate mixed lymphocyte cultures", "assay": "Mixed lymphocyte cultures across major histocompatibility barriers, six MHC-disparate strain combinations", "type": "cell-based, mice", "description": "(§1) Responder cells for MLR reactions across major histocompatibility barriers were harvested from spleen of non-immunized mice while responder cells for MLR across minor histocompatibility barriers were harvested from mice which were preimmunized with irradiated (30 Gy) 50×10^6 stimulator spleen cells 21 days before. Responder cells (5×10^5 spleen cells per well) were tested for their proliferative response by plating with different amounts (2.5 to 10×10^5) of irradiated stimulator cells, in presence or absence of various peptide inhibitors (10–100 μg per well). Cultures were set up in 200 μl media containing 10% FCS in flat-bottom microtiter plates. After 4 days of incubation, cultures were pulsed with 1 μCi of [^3H]thymidine for an additional 16 hours. Results are represented as mean counts per minute (cpm) thymidine incorporation from triplicate cultures."}, "[3]": {"test_system": "GVHD in B10.D2 → BALB/c recipients", "assay": "Murine lethal GVHD model after bone marrow transplantation, B10.D2/nSnJ→BALB/c", "type": "in vivo, mice", "settings": "for overall incidence of GVHD: 600 μg per injection (ip + sc)", "description": "The murine GVHD model of B10.D2/nSnJ→BALB/c mice (both H-2^d) across minor histocompatibility barriers, was selected since it is similar to the MHC matched bone marrow transplantation in humans. For the induction of GVHD, 10×10^6 bone marrow and 100×10^6 spleen cells from B10.D2 mice were injected into lethally irradiated (8.0 Gy) BALB/c recipients. […] Recipient mice were 12–13 weeks at the time of transplantation.\nBased on previous studies with Cop 1 in EAE (Sela et al., 1990; Teitelbaum et al., 1971; Teitelbaum et al., 1973) and class II-binding competitor peptides in GVHD (Schlegel et al., 1994), the dosage of 600 μg per injection was selected, half of which was administered intraperitoneally (ip), whereas the other half was given subcutaneously (sc). Treatment of BALB/c recipient mice was initiated on day −1, followed by daily injections for the first five weeks starting on day 0 after transplantation. The frequency of injections was tapered to three times per week for the subsequent two weeks and to two times per week for another two weeks and then discontinued. Throughout the experiment, copolymers and controls were administered once a week with incomplete Freund's adjuvant (IFA) ip as a depot dose (Schlegel et al., 1994). Treatment was discontinued 9 weeks after transplantation.\nMice were followed up daily for 140 days after bone marrow transplantation for signs of GVHD. Disease severity was assessed by mortality, loss of body weight, and by the extent of macroscopic skin involvement scored on a cumulative scale (from min O— max 8): head 1, neck 1, back (1/3, 2/3, 3/3) 1–3, front (1/3, 2/3, 3/3) 1–3. Skin biopsies were examined as previously described (Schlegel et al., 1994).\n(ii) Effect of Copolymer 1 Treatment on the Incidence, Onset and Severity of GVHD. […] For the first five weeks after transplant mice were injected daily as outlined in Materials and Methods, followed by a tapering schedule over an additional four weeks.\n(iii) Effect of Copolymer 1 treatment on survival. […]"}, "[4]": {"test_system": "proliferation of B10.PL (H-2u) responder cells to PL/J stimulator cells", "assay": "Mixed lymphocyte reaction (MLR) across minor histocompatibility barriers", "type": "cell-based, mice", "settings": "20 μg/well, Cop 1 Batch I, 1:1 ratio of responder to stimulator cells", "description": "as §1\nTo investigate the feasibility of inhibition of MLR by Copolymer 1, an MLR system was developed in which Copolymer 1 was tested for its ability to inhibit the proliferation of B10.PL (H-2^u) responder cells to stimulator cells of either the same (PL/J) or different (BALB/c) H-2 haplotype. For comparison, the inhibitory MBP Ac 1-11[4A], MBP 35-47, a combination of Ac 1-1[4A]+MBP 35-47, MBP 89-101 and KM-core peptides, described in Schlegel et al. (1994), were used in the MLR experiments.\nThe inhibition obtained by Copolymer 1 was similar (in response to minor histocompatibility antigen) or even higher (in response to major histocompatibility antigen) than the inhibition obtained with the combination of the two synthetic peptides Ac 1-11[4A] and MBP 35-47, which specifically bind to the class II molecules I-A^u and the I-E^u, respectively. The molar efficiency of Copolymer 1 of M.W. 6000 is even higher since the molecular weight of the synthetic peptides is 4–5 fold lower."}}}
{"substance": "Glatiramer acetate [Cop 1]", "values": [{"measurement": "Maximum inhibition of proliferative responses to mH antigens", "setting": "[1]; 80 μg/well", "value": 100, "unit": "%"}, {"measurement": "cpm (Cop 1 Assay Concentration)", "setting": "[1]; Cop 1 1.5 μg", "value": "124,904 cpm"}, {"measurement": "cpm (Cop 1 Assay Concentration)", "setting": "[1]; Cop 1 5 μg", "value": "126,405 cpm"}, {"measurement": "cpm (Cop 1 Assay Concentration)", "setting": "[1]; Cop 1 10 μg", "value": "119,866 cpm"}, {"measurement": "cpm (Cop 1 Assay Concentration)", "setting": "[1]; Cop 1 20 μg", "value": "75,840 cpm"}, {"measurement": "cpm (Cop 1 Assay Concentration)", "setting": "[1]; Cop 1 40 μg", "value": "23,591 cpm"}, {"measurement": "cpm (Cop 1 Assay Concentration)", "setting": "[1]; Cop 1 80 μg", "value": 361, "unit": "cpm"}, {"measurement": "inhibitory effect on the MLC", "setting": "[2]; 10–100 μg/well, all concentrations tested", "value": "dose-dependent inhibition"}, {"measurement": "concentration sufficient to achieve 50% inhibition of the proliferative responses", "setting": "[2]; Batch I", "value": "10–25 μg/well"}, {"measurement": "Maximum inhibition", "setting": "[2]; all strain combinations tested", "value": 100, "unit": "%"}, {"measurement": "long-term survival from lethal graft-versus-host disease", "setting": "[3]; 600 μg per injection", "value": "improved long-term survival"}, {"measurement": "animals (without GVHD) to the observation period of 140 days after transplant", "setting": "[3]; 600 μg per injection, Batch I", "value": "Nine of 25"}, {"measurement": "mice survived more than 140 days after transplant", "setting": "[3]; 600 μg per injection, Batch I", "value": 56, "unit": "%"}, {"measurement": "overall disease severity (disease severity score, mean body weight curves)", "setting": "[3]; 600 μg per injection, Batch I", "value": "improved overall disease severity"}, {"measurement": "overall incidence of GVHD", "setting": "[3]; day 30 after transplant, Cop 1 Batch I", "value": 12, "unit": "%"}, {"measurement": "overall incidence of GVHD", "setting": "[3]; day 70 after transplant, Cop 1 Batch I", "value": 48, "unit": "%"}, {"measurement": "median onset of GVHD", "setting": "[3]; days after transplant, 600 μg per injection", "value": 73, "unit": "days"}, {"measurement": "onset of GVHD, range", "setting": "[3]; days after transplant, in 12/25 treated animals, 600 μg per injection", "value": "32 to 112", "unit": "days"}, {"measurement": "mice survived more than 140 days after transplant", "setting": "[3]; survivors/treated, 600 μg per injection, Cop 1 Batch I", "value": "14/25"}, {"measurement": "inhibition of MLR", "setting": "[4]", "value": 63, "unit": "%"}]}
